Patent US8883801B2, “Substituted pyrazolo[1,5-a]pyrimidines as mTOR inhibitors” (Merck Sharp & Dohme Corp., priority 2010, dated 2014)

biological target: human mTOR enzyme (Homo sapiens, UniProt P42345); assay: HTRF mTOR enzyme (kinase) assay; format: biochemical; settings: rated class; 5 μM ATP, 0.2 μM GST-S6K; read-out: hMTOR IC50
Experimental: Methods: An HTRF mTOR enzyme assay was developed to assess the compounds' inhibitory activity. The mTOR assay buffer contained 10 mM Hepes (pH 7.4), 50 mM NaCl, […] BSA, 50 mM […], 10 mM MnCl2 and 0.5 mM DTT. […] 20 ng of human mTOR enzyme (<5% pure was preincubated with the compound for 10 minutes followed by the addition of 5 μM ATP and 0.2 μM GST-S6K (Zhang et al., Protein Expression and Purification 46, pp 414-420 (2006)). The reaction was incubated for one hour at 30° C. Anti phospho p70-S6K(Thr389) (˜1.7 ng/well, anti-phospho-p70S6K-cryptate (Pho-p70S6-Kin-K cat#64CUSKAY, from Cisbio)) and anti GST-XL665 (1:1 Ratio with the substrate GST-S6K, anti GST-XL665, cat#61GSTXLB) Cisbio) were added after the reaction was stopped. The plates were read (PHERAstar, BMG) at least 2 hours after adding the anti phospho p70-S6K and the anti GST-XL665.
IC50 DETERMINATIONS: Dose-response curves were plotted from the inhibition data generated, each in duplicate, from 8 point serial dilutions of inhibitory compounds. Concentration of compound was plotted against the HTRF em665/em590 ratio signal. To generate IC50 values, the dose-response curves were fitted to a standard sigmoidal curve and IC50 values were derived by nonlinear regression analysis.

human mTOR enzyme, sequence (P42345 1360-2549 limits assumed): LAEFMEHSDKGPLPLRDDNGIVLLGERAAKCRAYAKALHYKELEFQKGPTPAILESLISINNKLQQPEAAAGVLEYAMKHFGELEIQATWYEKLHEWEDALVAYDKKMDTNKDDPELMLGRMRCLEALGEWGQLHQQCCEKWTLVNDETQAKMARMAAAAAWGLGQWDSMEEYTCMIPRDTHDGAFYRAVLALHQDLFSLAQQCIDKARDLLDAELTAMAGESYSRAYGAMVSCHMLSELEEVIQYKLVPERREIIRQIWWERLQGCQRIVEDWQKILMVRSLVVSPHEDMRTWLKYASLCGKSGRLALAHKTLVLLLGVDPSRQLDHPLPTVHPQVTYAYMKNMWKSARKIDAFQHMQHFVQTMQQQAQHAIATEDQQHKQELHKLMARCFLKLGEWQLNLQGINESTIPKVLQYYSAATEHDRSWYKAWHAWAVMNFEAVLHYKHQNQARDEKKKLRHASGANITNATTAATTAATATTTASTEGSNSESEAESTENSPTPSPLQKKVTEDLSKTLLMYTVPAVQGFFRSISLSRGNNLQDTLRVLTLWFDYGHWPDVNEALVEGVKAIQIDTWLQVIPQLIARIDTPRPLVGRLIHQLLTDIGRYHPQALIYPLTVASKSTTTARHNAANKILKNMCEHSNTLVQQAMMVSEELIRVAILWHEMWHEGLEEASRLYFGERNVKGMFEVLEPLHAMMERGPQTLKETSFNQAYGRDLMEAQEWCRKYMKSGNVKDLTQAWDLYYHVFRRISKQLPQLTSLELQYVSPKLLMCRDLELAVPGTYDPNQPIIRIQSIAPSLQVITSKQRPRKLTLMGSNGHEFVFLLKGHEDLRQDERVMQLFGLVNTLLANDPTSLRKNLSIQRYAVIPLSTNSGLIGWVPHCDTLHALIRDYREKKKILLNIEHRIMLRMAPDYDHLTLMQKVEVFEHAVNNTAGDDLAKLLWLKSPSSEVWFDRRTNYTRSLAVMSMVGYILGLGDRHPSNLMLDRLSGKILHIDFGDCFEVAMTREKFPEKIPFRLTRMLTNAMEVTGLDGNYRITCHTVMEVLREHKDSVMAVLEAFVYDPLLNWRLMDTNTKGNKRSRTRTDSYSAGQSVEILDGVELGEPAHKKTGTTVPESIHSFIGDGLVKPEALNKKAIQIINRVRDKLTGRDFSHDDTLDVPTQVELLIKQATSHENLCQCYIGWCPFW

**Q.** COCCO[C@]1(C(=O)O)CC[C@@H](c2nc3c(-c4cnn(-c5ccc(S(C)(=O)=O)cc5)c4)cnn3c(N)c2S(C)(=O)=O)CC1 [Compound 53, (1R,4R)-4-(7-amino-6-(methylsulfonyl)-3-(1-(4-(methylsulfonyl)phenyl)-1H-pyrazol-4-yl)pyrazolo[1,5-a]pyrimidin-5-yl)-1-(2-methoxyethoxy)cyclohexanecarboxylic acid] was tested. Which IC50 did it give?
**A.** The IC50 was 100 to 1000 nM.

**Q.** With COCCONC(=O)[C@]1(OCCOC)CC[C@H](c2nc3c(-c4cnn(-c5ccccc5)c4)cnn3c(N)c2S(C)(=O)=O)CC1 [Compound 101] as the compound, how does the IC50 read?
**A.** Its IC50 is 1 to 100 nM.

**Q.** How did the IC50 turn out when COCCO[C@]1(C(=O)O)CC[C@@H](c2nc3c(-c4cnc(-c5ccn(C)n5)nc4)cnn3c(N)c2S(C)(=O)=O)CC1 [Compound 49, (1R,4R)-4-(7-amino-3-(2-(1-methyl-1H-pyrazol-3-yl)pyrimidin-5-yl)-6-(methylsulfonyl)-pyrazolo[1,5-a]-pyrimidin-5-yl)-1-(2-mcthoxyethoxy)-cyclohexanecarboxylic acid] was run?
**A.** The IC50 was 1 to 100 nM.

**Q.** Which IC50 does the source give for CC(=O)c1c(C2CCC(O)(CO)CC2)nc2c(-c3ccc(-c4ccc(O)nc4)nc3)cnn2c1N (centres unmarked) [Compound 147, 1-(7-amino-3-(6′-hydroxy-2,3′-bipyridin-5-yl)-5-(4-hydroxy-4-(hydroxymethyl)-cyclohexyl)-pyrazolo-[1,5-a]pyrimidin-6-yl)ethanone] here?
**A.** The IC50 was 1 to 100 nM.

**Q.** COCCO[C@]1(C(=O)N(C)OC)CC[C@@H](c2nc3c(-c4cnn(-c5ccccc5)c4)cnn3c(N)c2S(C)(=O)=O)CC1 [Compound 97, (1R,4R)-4-(7-amino-6-(methylsulfonyl)-3-(1-phenyl-1H-pyrazol-4-yl)pyrazolo[1,5-a]pyrimidin-5-yl)-N-methoxy-1-(2-methoxyethoxy)-N-methylcyclohexane-carboxamide] was tested. Which IC50 did it give?
**A.** Its IC50 is 1 to 100 nM.

**Q.** For COC(=O)c1cccc(-c2ccc(-c3cnn4c(N)c(C(C)=O)c(C5CCC(O)(CO)CC5)nc34)cn2)c1 (centres unmarked) [Compound 150, methyl 3-(5-(6-acetyl-7-amino-5-(4-hydroxy-4-(hydroxymethyl)-cyclohexyl)-pyrazolo-[1,5-a]pyrimidin-3-yl)pyridin-2-yl)benzoate], which IC50 is on record?
**A.** Its IC50 is 1 to 100 nM.

**Q.** How did the IC50 turn out when COC[C@]1(C(=O)O)CC[C@H](c2nc3c(-c4cnn(-c5ccccc5)c4)cnn3c(N)c2C(C)=O)CC1 [Compound 20, (1R,4R)-4-(6-acetyl-7-amino-3-(1-phenyl-1H-pyrazol-4-yl)pyrazolo[1,5-a]pyrimidin-5-yl)-1-(methoxymethyl)-cyclohexane-carboxylic acid] was run?
**A.** Its IC50 is 100 to 1000 nM.

**Q.** COCCO[C@]1(C(=O)O)CC[C@@H](c2nc3c(-c4ccc(-c5ccn(C)n5)[n+]([O-])c4)cnn3c(N)c2S(C)(=O)=O)CC1 [Compound 45, 5-(7-amino-5-((1R,4R)-4-carboxy-4-(2-methoxyethoxy)cyclohexyl)-6-(methylsulfonyl)-pyrazolo[1,5-a]pyrimidin-3-yl)-2-(1-methyl-1H-pyrazol-3-yl)pyridine 1-oxide] was tested. Which IC50 did it give?
**A.** Its IC50 is 1 to 100 nM.

**Q.** CO[C@]1(CC(=O)O)CC[C@H](c2nc3c(-c4ccc(-c5ccccc5)nc4)cnn3c(N)c2Br)CC1 [Compound 80, 2-((1S,4S)-4-(7-amino-6-bromo-3-(6-phenylpyridin-3-yl)pyrazolo[1,5-a]pyrimidin-5-yl)-1-methoxycyclohexyl)acetic acid] was tested. Which IC50 did it give?
**A.** Its IC50 is 100 to 1000 nM.

**Q.** With CCONC(=O)[C@]1(OCCOC)CC[C@H](c2nc3c(-c4cnn(-c5ccccc5)c4)cnn3c(N)c2S(C)(=O)=O)CC1 [Compound 98, (1R,4R)-4-(7-amino-6-(methylsulfonyl)-3-(1-phenyl-1H-pyrazol-4-yl)pyrazolo[1,5-a]pyrimidin-5-yl)-N-ethoxy-1-(2-methoxyethoxy)-cyclohexane-carboxamide] as the compound, how does the IC50 read?
**A.** Its IC50 is 1 to 100 nM.

**Q.** How did the IC50 turn out when COCCO[C@]1(C(=O)c2nnc[nH]2)CC[C@H](c2nc3c(-c4ccc(-c5ccccc5)nc4)cnn3c(N)c2S(C)(=O)=O)CC1 [Compound 124, ((1S,4S)-4-(7-amino-6-(methylsulfonyl)-3-(6-phenylpyridin-3-yl)pyrazolo[1,5-a]pyrimidin-5-yl)-1-(2-methoxyethoxy)cyclohexyl)(4H-1,2,4-triazol-3-yl)methanone] was run?
**A.** Its IC50 is 1 to 100 nM.

**Q.** With COC(=O)c1cc(-c2ccc(-c3cnn4c(N)c(C(C)=O)c([C@H]5CC[C@](O)(CO)CC5)nc34)cn2)ccc1OC [Compound 154, methyl 5-(5-(6-acetyl-7-amino-5-((1S,4S)-4-hydroxy-4-(hydroxymethyl)-cyclohexyl)-pyrazolo-[1,5-a]pyrimidin-3-yl)pyridin-2-yl)-2-methoxybenzoate] as the compound, how does the IC50 read?
**A.** Its IC50 is 1 to 100 nM.

**Q.** Which IC50 does the source give for CC(=O)c1c(C2CCC(O)(CO)CC2)nc2c(-c3ccc(-c4cccc(C(=O)O)c4)nc3)cnn2c1N (centres unmarked) [Compound 151, 3-(5-(6-acetyl-7-amino-5-(4-hydroxy-4-(hydroxymethyl)-cyclohexyl)-pyrazolo-[1,5-a]pyrimidin-3-yl)pyridin-2-yl)benzoic acid] here?
**A.** Its IC50 is 1 to 100 nM.

**Q.** COC[C@]1(O)CC[C@H](c2nc3c(-c4ccc(-c5ccccc5)nc4)cnn3c(N)c2Br)CC1 [Compound 163, (1R,4R)-4-(7-amino-6-bromo-3-(6-phenylpyridin-3-yl)pyrazolo[1,5-a]pyrimidin-5-yl)-1-(methoxymethyl)cyclohexanol] was tested. Which IC50 did it give?
**A.** Its IC50 is 1 to 100 nM.

**Q.** With CO[C@]1(CC(=O)O)CC[C@@H](c2nc3c(-c4ccc(-c5ccccc5)nc4)cnn3c(N)c2Br)CC1 [Compound 81] as the compound, how does the IC50 read?
**A.** The IC50 was 100 to 1000 nM.

**Q.** With COCCO[C@]1(C(=O)O)CC[C@H](c2nc3c(-c4ccc(-c5cscn5)nc4)cnn3c(N)c2C(C)=O)CC1 [Compound 61, (1S,4S)-4-(6-acetyl-7-amino-3-(6-(thiazol-4-yl)pyridin-3-yl)pyrazolo[1,5-a]pyrimidin-5-yl)-1-(2-methoxyethoxy) cyclohexanecarboxylic acid] as the compound, how does the IC50 read?
**A.** Its IC50 is 1 to 100 nM.

**Q.** How did the IC50 turn out when CC(=O)c1c(N)n2ncc(-c3cnn(-c4cnn(C)c4)c3)c2nc1[C@H]1CC[C@](O)(CO)CC1 [Compound 149, 1-(7-amino-5-((1S,4S)-4-hydroxy-4-(hydroxymethyl)-cyclohexyl)-3-(1′-methyl-1′H-1,4′-bipyrazol-4-yl)pyrazolo[1,5-a]pyrimidin-6-yl)ethanone] was run?
**A.** Its IC50 is 100 to 1000 nM.

**Q.** For COCCO[C@]1(C(=O)CO)CC[C@@H](c2nc3c(-c4ccc(-c5ccccc5)nc4)cnn3c(N)c2S(C)(=O)=O)CC1 [Compound 130, 1-((1R,4R)-4-(7-amino-6-(methylsulfonyl)-3-(6-phenylpyridin-3-yl)pyrazolo[1,5-a]pyrimidin-5-yl)-1-(2-methoxyethoxy)cyclohexyl)-2-hydroxyethanone], which IC50 is on record?
**A.** The IC50 was 1 to 100 nM.

**Q.** How did the IC50 turn out when COCCO[C@]1(C(=O)NOCC2CC2)CC[C@@H](c2nc3c(-c4ccc(-c5ccccc5)nc4)cnn3c(N)c2S(C)(=O)=O)CC1 [Compound 106, (1R,4R)-4-(7-amino-6-(methylsulfonyl)-3-(6-phenylpyridin-3-yl)pyrazolo[1,5-a]pyrimidin-5-yl)-N-(cyclopropylmethoxy)-1-(2-methoxyethoxy)-cyclohexane-carboxamide] was run?
**A.** Its IC50 is 1 to 100 nM.

**Q.** How did the IC50 turn out when COCCO[C@]1(C(=O)NOCC2CC2)CC[C@@H](c2nc3c(-c4cnn(-c5ccccc5)c4)cnn3c(N)c2S(C)(=O)=O)CC1 [Compound 99, (1R,4R)-4-(7-amino-6-(methylsulfonyl)-3-(1-phenyl-1H-pyrazol-4-yl)pyrazolo[1,5-a]pyrimidin-5-yl)-N-(cyclopropylmethoxy)-1-(2-methoxyethoxy)-cyclohexane-carboxamide] was run?
**A.** The IC50 was 1 to 100 nM.
